“Also recorded” adds a separate entry of the source. Like-named read-outs stand apart in the source and are kept apart here.
How the values were obtained:
[1] = system: non-diabetic rats; assay: Opioid-mediated antinociception (Von Frey, % MPE) in non-diabetic control rats; type: in vivo, rat; conditions: for ED50: Rattus norvegicus
Protocol: A second group of STZ-diabetic rats received vehicle (DMSO:water 10:90) by oral gavage (protocol-control rats). In the third group, weight-matched, naive, non-diabetic control rats (non-diabetic candesartan control rats) were also treated with candesartan for one wk prior to opioid antinociceptive testing to determine any intrinsic effects of candesartan on baseline pain scores and on opioid-mediated antinociception.
The statistical significance criterion was p<0.05.

[2] = system: STZ-diabetic rats; conditions: cited from earlier work
[3] = system: non-diabetic rats; conditions: control non-diabetic rats; previously determined by Saini (2000); cited from earlier work
[4] = system: STZ-diabetic rats; assay: Opioid-mediated antinociception (Von Frey, % MPE) in STZ-diabetic rats; conditions: for ED50: Rattus norvegicus; for timing of the peak antinociceptive effect: morphine 6.1 mg/kg s.c.; for time to reach peak levels of antinociception: s.c. morphine, high-dose oral candesartan-treated STZ-diabetic rats
Protocol: In all cases, opioids were administered by a single s.c. injection (100 μL) into the dorsal region at the base of the neck whilst under light CO2/O2 (50:50%) anaesthesia using a 250 μL Hamilton syringe. […] By contrast, the opioid-naïve, weight-matched, non-diabetic candesartan control rats were given high-dose oral candesartan (2 mg/kg/day) for 7 days before opioid testing was initiated.
Immediately prior to administration of s.c. bolus doses of either opioid, baseline paw withdrawal thresholds were quantified using VFFs in an identical manner to the weekly baseline Von Frey monitoring described above. Following s.c. opioid administration, VFF assessments were performed at the following post-dosing times: 15, 30, 45, 60, 90, 120 and 180 min.
The VFF scores for individual rats were converted to the Percentage of the Maximum Possible Antinociceptive Effect (% MPE), according the following formula (Brady & Holtzmann, 1982): [formula]
(§1) The mean (±SEM) percentage maximum AUC (% Max AUC) was calculated according to the following formula: [formula]
ED50 estimation was facilitated by inclusion of the theoretical maximum and minimum % Max AUC values. The Mann-Whitney test was used to compare %MPE AUC ED50 values between treatment groups. The statistical significance criterion was p<0.05.

[5] = target: T1, CYP2D6 (Homo sapiens, UniProt P10635); conditions: humans, CYP2D6-mediated; cited from earlier work
T1 construct: low extent of CYP2D6-mediated O-demethylation of oxycodone to oxymorphone in humans; host or cells: human subjects (in vivo metabolism)
T1 sequence (P10635 whole entry): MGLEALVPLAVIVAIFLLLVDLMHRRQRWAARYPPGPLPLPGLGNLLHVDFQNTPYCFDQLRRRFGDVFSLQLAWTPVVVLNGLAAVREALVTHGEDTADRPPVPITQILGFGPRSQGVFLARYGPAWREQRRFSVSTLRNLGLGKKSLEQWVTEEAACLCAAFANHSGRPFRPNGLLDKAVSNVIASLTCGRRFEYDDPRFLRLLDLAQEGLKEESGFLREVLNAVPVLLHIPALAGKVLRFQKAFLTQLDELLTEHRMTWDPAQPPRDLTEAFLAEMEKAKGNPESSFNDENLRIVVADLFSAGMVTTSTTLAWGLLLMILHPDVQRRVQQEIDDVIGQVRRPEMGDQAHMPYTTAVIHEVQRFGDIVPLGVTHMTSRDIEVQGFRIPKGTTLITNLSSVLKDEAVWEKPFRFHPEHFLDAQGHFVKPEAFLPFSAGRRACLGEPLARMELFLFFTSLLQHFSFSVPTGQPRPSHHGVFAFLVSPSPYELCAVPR

[6] = system: STZ-diabetic rats; assay: Von Frey assessment of tactile allodynia (paw withdrawal threshold); type: in vivo, rat
Protocol: Candesartan treatment was initiated after STZ administration (day 0) but prior to the onset of diabetes. Specifically, candesartan-treated rats received this drug via once-daily oral gavage in one of two dosages: viz a high-dose (2 mg/kg/day) or a low dose (0.5 mg/kg/day). The 2 mg/kg/day dose was chosen on the basis that it is an anti-hypertensive dose both in rats with perfused Ang II-induced hypertension and also in the spontaneously hypertensive rat (SHR) (Nishikawa et al., 1994, Blood Press, Suppl 5: 7-14). The low-dose ([…]) was included to investigate whether a sub-therapeutic dose (in terms of anti-hypertensive activity) of candesartan was efficacious for the treatment of PDN. Once initiated, oral once-daily candesartan was administered every day for 24 wks.
Tactile allodynia, the defining symptom of PDN, manifests as a hypersensitive response to non-noxious stimuli such as touch or light pressure, and was quantified using Von Frey filaments (VFFs). […] However, indirect methods have a questionable correlation with symptomatic severity (Malik et al., 1998, supra; Malik et al., 2001, supra). Therefore direct quantification of symptom severity using VFF assessment was used to obtain clinically relevant end points.
For each antinociceptive testing session, rats were placed in wire mesh metabolic cages (20 cm×20 cm×20 cm) and allowed to acclimatise to the test environment for approximately 10-15 min prior to the commencement of experiments. Calibrated VFFs, delivering a force in the range 2-20 g, were then applied to the plantar surface of the hind-paw to determine the paw withdrawal thresholds defined as the minimum force necessary to elicit a brisk foot withdrawal reflex. Commencing with the VFF delivering the lowest mechanical force, the filament was applied to the plantar surface of the footpad until buckling of the filament was observed. Absence of a response after approximately 3 s prompted application of the next VFF of increasing force to the footpad.
The onset and progression of the development of tactile allodynia in all STZ-diabetic rats were quantified by once weekly VFF paw withdrawal testing. Specifically for each rat, three separate assessments of paw withdrawal thresholds were undertaken, each approximately 5 min apart.

[7] = system: STZ-diabetic rats; assay: Reversal protocol: AT1 antagonist from 12 wks post-STZ, morphine antinociception; conditions: oral candesartan 2 mg/kg/day for 4 wks commencing 12 wks post-STZ; tested at 16 wks post-STZ
Protocol: STZ-diabetic rats (n=18) were allocated to one of three experimental groups. Groups one and two received once-daily oral administration of antihypertensive doses of one of the AT1-antagonists, viz candesartan (2.0 mg/kg/day)or losartan (20 mg/kg/day), commencing at 12 weeks post-STZ administration (day 0). The third group (control STZ-diabetic rats) received no treatment.
as §1
The Mann-Whitney test was used to compare %MAX AUC values between treatment groups. The statistical significance criterion was p<0.05.

[8] = Body weight, metabolic signs and general health of STZ-diabetic rats; type: in vivo, rat; conditions: 24 wks post-STZ rats, cessation of chronic candesartan 2.0 mg/kg/day
Excerpt: Induction of STZ-diabetes produced an initial ≈5-10% reduction in (mean±SEM) body weight from 233 (±1.99) g pre-STZ administration to 218 (±3.28) g at 4 wks post-STZ, followed by a gradual return to the pre-study weight over the ensuing 6-mth study period (FIG. 1).
One rat died 5 wks after the cessation of candesartan therapy.

[9] = oxycodone 2.0 mg/kg s.c., candesartan (0.5 mg/kg/day) treated STZ-diabetic rats, 12 wks post-STZ
[10] = oxycodone 2.0 mg/kg s.c., candesartan (0.5 mg/kg/day) treated STZ-diabetic rats, 21 wks post-STZ
[11] = oxycodone 2.0 mg/kg s.c., candesartan (0.5 mg/kg/day) treated STZ-diabetic rats, 24 wk post-STZ
[12] = oxycodone 2.0 mg/kg s.c., control STZ-diabetic rats, 9 wks post-STZ
[13] = oxycodone 2.0 mg/kg s.c., control STZ-diabetic rats, 12 wks post-STZ
[14] = oxycodone […] s.c., candesartan (0.5 mg/kg/day) treated STZ-diabetic rats, 3 wks post-STZ
[15] = oxycodone […] s.c., candesartan (0.5 mg/kg/day) treated STZ-diabetic rats, 9 wks post-STZ
[16] = oral candesartan 0.5 mg/kg/day, by 22 wks post-STZ
[17] = oral candesartan 2 mg/kg/day once daily, 24 wk post-STZ study period, relative to non-diabetic control rats

## CN1CC[C@]23c4c5ccc(O)c4O[C@H]2[C@@H](O)C=C[C@H]3[C@H]1C5 [morphine]
[1]; read-out: ED50 of s.c. morphine, non-diabetic rats on high-dose oral candesartan 2.0 mg/kg/day
  ED50: 2.3 ± 0.3 mg/kg
[1]; sc, read-out: mean (±SEM) ED50 of s.c. morphine, control untreated non-diabetic rats
  ED50: 2.9 mg/kg
[1]; morphine 2.4 mg/kg s.c., control non-diabetic rats
  time to achieve the peak antinociceptive effect: 45 min
[2]; s.c. morphine, control STZ-diabetic rats by 12 wks post-STZ (Smith et al., 2001)
  antinociceptive efficacy: completely abolished
[2]; s.c., STZ-diabetic rats at 3 and 9 wks post-STZ, previously determined by Smith et al. (2001)
  ED50 morphine dose: 6.1 mg/kg
[3]
  ED50 of s.c. morphine (single bolus dose): ~2.4 mg/kg
[4]; 504 h, read-out: mean (±SEM) ED50 of s.c. morphine
  ED50: 2.5 mg/kg
[4]; 1512 h, read-out: mean (±SEM) ED50 of s.c. morphine
  ED50: 2.3 mg/kg
[4]; 2016 h, read-out: mean (±SEM) ED50 of s.c. morphine
  ED50: 2.1 mg/kg
[4]; 4032 h, read-out: mean (±SEM) ED50 of s.c. morphine
  ED50: 2.4 mg/kg
[4]; control STZ-diabetic rats of the present studies, 12 wks post-STZ and beyond
  antinociceptive response evoked by morphine: marked decrease
[4]; morphine 2.4 mg/kg s.c., STZ-diabetic rats 24 wks post-STZ, oral candesartan 2.0 mg/kg/day
  time to achieve the peak antinociceptive effect: 60 min
[4]; control STZ-diabetic rats, 3 wks post-STZ
  timing of the peak antinociceptive effect: approximately 45 min
[4]; control STZ-diabetic rats, 9 wks post-STZ
  timing of the peak antinociceptive effect: 60 min
[4]; 3 wks post-STZ
  time to reach peak levels of antinociception: 45 min
[4]; beyond 12 wks post-STZ
  time to reach peak levels of antinociception: 60 min

## COc1ccc2c3c1O[C@H]1C(=O)CC[C@@]4(O)[C@@H](C2)N(C)CC[C@]314 [oxycodone]
[1]; sc, control untreated non-diabetic rats, read-out: mean (±SEM) ED50 of s.c. oxycodone
  ED50: 1.2 mg/kg
[1]; non-diabetic control rats on high-dose oral candesartan 2.0 mg/kg/day, read-out: ED50 of s.c. oxycodone
  ED50: 1.1 mg/kg
[1]; oxycodone […] s.c., candesartan (2.0 mg/kg/day) treated non-diabetic rats
  Mean (±SEM) % MPE AUC: 155 (±8.5) % MPE.h
[2]; s.c. oxycodone, STZ-diabetic rats over 24 wk study (Smith et al., 2001)
  decrease in potency relative to non-diabetic control rats: 4 fold
[5]
  fraction of each dose O-demethylated to oxymorphone: < 5%
[4]; 504 h, read-out: mean (±SEM) ED50 of s.c. oxycodone
  ED50: 1.4 mg/kg
[4]; 1512 h, read-out: mean (±SEM) ED50 of s.c. oxycodone
  ED50: 1.3 mg/kg
[4]; 4032 h, read-out: mean (±SEM) ED50 of s.c. oxycodone
  ED50: 1.1 mg/kg
[4]; sc, 504 h, read-out: approximate ED50 oxycodone dose
  ED50: ~1.5 mg/kg
[4]; sc, 2016 h, read-out: approximate ED50 oxycodone dose
  ED50: ~2 mg/kg
[4]; sc, 4032 h, read-out: approximate ED50 oxycodone dose
  ED50: ~3.2 mg/kg
[4]; [9]
  Mean (±SEM) % MPE AUC: 116 (±8.2) % MPE.h
  Mean (±SEM) dose normalised % MPE AUC: 67.70 (±4.111) % MPE AUC.h.kg.mg^−1
[4]; [10]
  Mean (±SEM) % MPE AUC: 171 (±8.3) % MPE.h
  Mean (±SEM) dose normalised % MPE AUC: 85.34 (±4.134) % MPE AUC.h.kg.mg^−1
[4]; [11]
  Mean (±SEM) % MPE AUC: 145 (±13.0) % MPE.h
  Mean (±SEM) dose normalised % MPE AUC: 72.45 (±6.527) % MPE AUC.h.kg.mg^−1
[4]; [12]
  Mean (±SEM) % MPE AUC: 162 (±3.2) % MPE.h
  Mean (±SEM) dose normalised % MPE AUC: 80.8 (±1.6) % MPE AUC.h.kg.mg^−1
[4]; [13]
  Mean (±SEM) % MPE AUC: 168 (±5.2) % MPE.h
  Mean (±SEM) dose normalised % MPE AUC: 84.2 (±2.6) % MPE AUC.h.kg.mg^−1
[4]; oxycodone 2.2** mg/kg s.c., candesartan (2.0 mg/kg/day) treated STZ-diabetic rats, 12 wks post-STZ
  Mean (±SEM) % MPE AUC: 158 (±6.9) % MPE.h
[4]; oxycodone […] s.c., STZ-diabetic rats, 4 wks candesartan (2.0 mg/kg/day) re-initiation
  Mean (±SEM) % MPE AUC: 157 (±8.5) % MPE.h
[4]; [14]
  Mean (±SEM) % MPE AUC: 131 (±7.9) % MPE.h
  Mean (±SEM) dose normalised % MPE AUC: 109.5 (±6.549) % MPE AUC.h.kg.mg^−1
[4]; [15]
  Mean (±SEM) % MPE AUC: 122 (±9.1) % MPE.h
  Mean (±SEM) dose normalised % MPE AUC: 102.1 (±7.611) % MPE AUC.h.kg.mg^−1
[4]; oxycodone […] s.c., candesartan (2.0 mg/kg/day) STZ-diabetic rats, 3 wks post-STZ
  decrease in antinociceptive response (%MPE AUC) versus non-diabetic protocol control rats: ≈ 20%
[4]; oxycodone […] s.c., candesartan (2.0 mg/kg/day) treated STZ-diabetic rats, 3 wks post-STZ
  Mean (±SEM) % MPE AUC: 120 (±8.9) % MPE.h
[4]; oxycodone […] s.c., candesartan (2.0 mg/kg/day) treated STZ-diabetic rats, 9 wks post-STZ
  Mean (±SEM) % MPE AUC: 136 (±13.3) % MPE.h
[4]; oxycodone […] s.c., control STZ-diabetic rats, 3 wks post-STZ
  Mean (±SEM) dose normalised % MPE AUC: 115.5 (±3.1) % MPE AUC.h.kg.mg^−1
[4]; oxycodone […] s.c., control STZ-diabetic rats, 24 wks post-STZ
  Mean (±SEM) dose normalised % MPE AUC: 44.1 (±2.4) % MPE AUC.h.kg.mg^−1
[4]; oxycodone […], candesartan (0.5 mg/kg/day) STZ-diabetic rats, 9 wks post-STZ
  decrease in oxycodone potency versus non-diabetic protocol control rats: 20%
[4]; oxycodone, candesartan (0.5 mg/kg/day) STZ-diabetic rats, by 12 wks post-STZ
  decrease in potency versus protocol controls: ~50%
[4]; oxycodone, low-dose candesartan (0.5 mg/kg/day) STZ-diabetic rats, 24 wks post-STZ
  decrease in dose-normalised %MPE AUC versus protocol-control non-diabetic rats: ~1.5 fold

## candesartan
[6]; 24 wks post-STZ on oral candesartan 2.0 mg/kg/day, immediately prior to cessation
  Mean (±SEM) paw withdrawal threshold: 11.9 (±0.2) g
[6]; oral candesartan 0.5 mg/kg/day once daily for 24 wks from STZ administration
  Development of tactile allodynia (Von Frey filaments): only delayed but did not prevent the development of tactile allodynia
[6]; [16]
  Paw withdrawal latencies versus rats given high-dose candesartan: significantly lower
  Paw withdrawal thresholds versus untreated STZ-diabetic control rats: not significantly different
[6]; oral candesartan 2.0 mg/kg/day once daily for 24 wks from STZ administration
  Development of tactile allodynia (Von Frey filaments): completely attenuated the development of tactile allodynia
[6]; oral candesartan 2.0 mg/kg/day, 24 wks post-STZ
  Mean paw withdrawal threshold versus non-diabetic control rodents: not significantly different
[6]; re-initiation of oral candesartan 2.0 mg/kg/day for six wks after six wks cessation
  Paw withdrawal thresholds after re-initiation of treatment: restored the paw withdrawal thresholds
[6]; six wks after cessation of chronic oral candesartan 2.0 mg/kg/day
  Mean (±SEM) paw withdrawal threshold: 6.0 (±0.3) g
[6]; within two wks of re-initiation of oral candesartan 2.0 mg/kg/day
  Mean (±SEM) paw withdrawal threshold: 11.3 ± 0.1 g
[7]
  Effect on morphine's antinociceptive effects (s.c. morphine 6.1 mg/kg): preserved morphine's antinociceptive effects; also recorded: morphine sensitivity was preserved
[4]; oral candesartan 0.5 mg/kg/day once daily, relative to control untreated STZ-diabetic rats
  Effect on loss of morphine potency: attenuated the loss of morphine potency
[4]; [17]
  Effect on temporal loss of morphine potency and efficacy: completely prevented the temporal loss of morphine potency and efficacy
  Effect on temporal loss of oxycodone potency and efficacy: completely prevented the temporal loss of oxycodone potency and efficacy
[8]
  Physical appearance and health after cessation of treatment: apparent general decline in the physical appearance and health

Source: patent publication US20030199424A1, “Method of treatment and/or prophylaxis” (priority 2002, published 2003)
